According to patent US20210255193A1, “LYSINE REACTIVE PROBES AND USES THEREOF” (The Scripps Research Institute, priority 2017, published 2021):

Target: T1, HK1 (Homo sapiens, UniProt P19367)
T1 construct: Flag; expressed in transfected cells; host or cells: HEK 293T
T1 sequence (P19367 1-917): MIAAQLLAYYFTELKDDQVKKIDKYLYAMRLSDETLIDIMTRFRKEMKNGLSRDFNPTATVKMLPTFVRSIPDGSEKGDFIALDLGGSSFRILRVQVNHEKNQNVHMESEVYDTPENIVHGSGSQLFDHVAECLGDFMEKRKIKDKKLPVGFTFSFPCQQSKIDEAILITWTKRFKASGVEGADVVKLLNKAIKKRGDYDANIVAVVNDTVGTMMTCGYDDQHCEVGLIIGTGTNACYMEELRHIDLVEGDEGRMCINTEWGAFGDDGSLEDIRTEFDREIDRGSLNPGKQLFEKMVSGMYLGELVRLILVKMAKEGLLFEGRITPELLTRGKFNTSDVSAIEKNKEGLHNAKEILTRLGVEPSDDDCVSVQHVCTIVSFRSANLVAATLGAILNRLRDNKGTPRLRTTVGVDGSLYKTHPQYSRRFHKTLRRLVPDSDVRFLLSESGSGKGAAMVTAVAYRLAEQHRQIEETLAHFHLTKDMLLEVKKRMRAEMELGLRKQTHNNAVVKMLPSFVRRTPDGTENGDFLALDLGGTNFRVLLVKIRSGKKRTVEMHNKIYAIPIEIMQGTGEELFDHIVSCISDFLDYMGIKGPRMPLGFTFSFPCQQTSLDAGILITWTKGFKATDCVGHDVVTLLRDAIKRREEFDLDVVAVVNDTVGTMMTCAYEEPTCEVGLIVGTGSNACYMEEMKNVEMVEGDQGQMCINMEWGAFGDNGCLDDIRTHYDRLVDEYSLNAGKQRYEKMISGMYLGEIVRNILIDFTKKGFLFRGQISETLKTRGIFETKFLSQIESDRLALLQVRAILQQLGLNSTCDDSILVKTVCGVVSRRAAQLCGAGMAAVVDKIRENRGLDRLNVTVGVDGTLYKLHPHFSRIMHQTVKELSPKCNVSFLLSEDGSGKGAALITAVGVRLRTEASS
Test: direct labeling of recombinantly expressed proteins by gel-based ABPP (WT vs lysine mutant)
Format: binding
Conditions: HK1 K510, KR mutant; 10 μM probe, 1 h

SMILES	labeling of WT vs mutant protein by probe
C#CCCC(=O)Oc1c(F)c(F)c(S(=O)(=O)[O-])c(F)c1F.[Na+] [probe 1, reference compound]	PD (the WT labeled more than the mutant (>2x difference quantified))
C#Cc1ccc(C(=O)Oc2c(F)c(F)cc(F)c2F)cc1 [probe 12, 2,3,5,6-Tetrafluorophenyl 4-ethynylbenzoate]	ND (the WT did not label more than the mutant (<2x difference quantified))
Cc1cc(C)n2c1C=C1C=CC(CCC(=O)Oc3c(F)c(F)c(S(=O)(=O)[O-])c(F)c3F)=[N+]1[B-]2(F)F.[Na+] [probe 18, reference compound]	ND (the WT did not label more than the mutant (<2x difference quantified))
C#CCCC(=O)Oc1c(F)c(F)c(F)c(F)c1F [probe 6, Pentafluorophenyl 4-pentynoate]	HD (the WT labeled more than the mutant (>4x difference quantified))
C#Cc1ccc(C(=O)Oc2c(F)c(F)c(F)c(F)c2F)cc1 [probe 13, Pentafluorophenyl 4-ethynylbenzoate]	ND (the WT did not label more than the mutant (<2x difference quantified))
